Assay results as given in patent US9713615B2, “Tetrahydroisoquinolin-2-yl-(quinazolin-4-yl)methanone compounds” (Rexahn Pharmaceuticals, Inc., priority 2013, dated 2017).
Like-named read-outs stand apart in the source and are kept apart here.

What was measured:
Assay type in all cases: cell-based, Human
[1] = system: Caki-1 (kidney); assay: SRB growth inhibition assay, Caki-1; details: read-out: Inhibition of cell growth (IC50, μM) Caki-1
From the text: (§1) Cancer cells used in this study to determine the effect of tetrahydroisoquinolin-2-yl-(quinazolin-4-yl)methanone compounds were obtained from the following sources: Human OVCAR-3 (ovary), SK-MEL-28 (melanoma), MDA-MB-231 (breast), HeLa (cervix), PC3 (prostate), HepG2 (liver), A549 (lung), Caki-1 (kidney), HCT116 (colon) and PANC-1 (pancreas) from the American Type Culture Collection (ATCC) (Manassas, Va.); U251 (brain) from Riken (Japan); MKN-45 (stomach) from DSMZ (Germany). All cell lines except MDA-MB-231, HCT116, Caki-1 and PANC-1 were grown in RPMI1640 medium (Invitrogen, Carlsbad, Calif.) supplemented with 10% fetal bovine serum (“FBS”), 1 mM sodium pyruvate, 10 mM HEPES and 100 U/ml penicillin and 100 μg/ml streptomycin (“P/S”). MDA-MB-231, HCT116, Caki-1 and PANC-1 cells were maintained in Dulbecco's modified Eagle's medium (“DMEM”, Invitrogen) supplemented with 10% FBS, P/S, 10 mM HEPES and 2 mM L-glutamine. All cells were incubated at 37° C. under humidified 5% CO2.
(§2) The growth inhibition of the tetrahydroisoquinolin-2-yl-(quinazolin-4-yl)methanone compounds against a variety of human tumor cells was evaluated to study the relative importance of particular substituent groups on the compounds. The tetrahydroisoquinolin-2-yl-(quinazolin-4-yl)methanone compounds, prepared as described above, were tested with DMSO as a control.
(§3) The growth inhibition assay of representative tetrahydroisoquinolin-2-yl-(quinazolin-4-yl)methanone derivatives against human tumor cell lines was performed using the Sulforhodamine B (“SRB”) method (Skehan et al., J. National Cancer Institute, 82: 1107-1112 (1990)). Briefly, exponentially growing tumor cells were seeded into a 96-well plate at a density of 2-3×10^3 cells/well and treated with tetrahydroisoquinolin-2-yl-(quinazolin-4-yl)methanone compounds the next day. Triplicate wells were used for each treatment. The cells were incubated with the various compounds for 96 hours at 37° C. in a humidified 5% CO2 atmosphere. After 96-hour incubation, cells were fixed with 10% trichloroacetic acid (“TCA”), incubated for 1 hour at 4° C., and washed 3 times with tap water. Subsequently, cells were stained with 0.4% sulforhodamine B in 1% acetic acid for 30 minutes, washed 4 times with 1% acetic acid, and air-dried again After 5 minutes agitation in 10 mM Tris solution, the absorbance of each well was measured at 530 nm using Benchmark Plus Microplate reader (Bio-Rad Laboratories, Hercules, Calif.).
(§4) To translate the OD530 values into the number of live cells in each well, the OD530 values were compared to those on standard OD530-versus-cell number curves generated for each cell line. The percent survival was calculated using the formula: % Survival=live cell number [test]/live cell number [control]×100
(§5) The IC50 values were calculated by non-linear regression analysis.
(§6) The compounds were screened against at […] including PANC-1, MDA-MB-231, HCT116 and Caki-1, at approximately 1 μM concentration. The inhibition of cell growth (IC50, μM) of some tetrahydroisoquinolin-2-yl-(quinazolin-4-yl)methanone compounds are shown in Table 2.

[2] = system: PANC-1 (pancreas); assay: SRB growth inhibition assay, PANC-1; details: read-out: Inhibition of cell growth (IC50, μM) Panc-1
From the text: as §1, §2, §3, §4, §5, §6

[3] = system: MDA-MB-231 (breast); assay: SRB growth inhibition assay, MDA-MB-231; details: read-out: Inhibition of cell growth (IC50, μM) MDA-MB-231
From the text: as §1, §2, §3, §4, §5, §6

[4] = system: HCT116 (colon); assay: SRB growth inhibition assay, HCT116; details: read-out: Inhibition of cell growth (IC50, μM) HCT116
From the text: as §1, §2, §3, §4, §5, §6

[5] = Homo sapiens, CAKI-1, 96 hours incubation
[6] = Homo sapiens, PANC-1, 96 hours incubation
[7] = Homo sapiens, MDA-MB-231, 96 hours incubation
[8] = Homo sapiens, HCT-116, 96 hours incubation

Compound | IC50 ([2]; 96 hours incubation) | IC50 ([3]; 96 hours incubation) | IC50 ([4]; 96 hours incubation) | IC50 [2, 6] | IC50 [3, 7] | IC50 [4, 8] | IC50 ([1]; 96 hours incubation) | IC50 [1, 5]
Cc1ccc(-c2nc(C(=O)N3CCc4c(ccc(C)c4O)C3)c3ccccc3n2)cc1 [Compound 16, 2-[[2-(4-methylphenyl)quinazolin-4-yl]carbonyl]-5-hydroxy-6-methyl-1,2,3,4-tetrahydroisoquinoline] | – | – | – | 1.72 µM | 1.5 µM | 2.05 µM | – | 1.61 µM
COc1ccc2c(c1OC)CCN(C(=O)c1nc(-c3ccccc3)nc3ccccc13)C2 [Compound 19, 2-[[2-phenylquinazolin-4-yl]carbonyl]-5,6-dimethoxy-1,2,3,4-tetrahydroisoquinoline] | – | – | – | 1.06 µM | 0.84 µM | 1.08 µM | – | 0.85 µM
Cc1ccc2c(c1O)CCN(C(=O)c1nc(-c3ccccc3)nc3ccccc13)C2 [Compound 21, 2-[[2-phenylquinazolin-4-yl]carbonyl]-5-hydroxy-6-methyl-1,2,3,4-tetrahydroisoquinoline] | – | – | – | 0.22 µM | 0.27 µM | 0.34 µM | – | 0.23 µM
COc1ccc(-c2nc(C(=O)N3CCc4c(ccc(OC)c4OC)C3)c3ccccc3n2)cc1 [Compound 24, 2-[[2-(4-methoxylphenyl)quinazolin-4-yl]carbonyl]-5,6-dimethoxy-1,2,3,4-tetrahydroisoquinoline] | – | – | – | 0.46 µM | 0.41 µM | 0.49 µM | – | 0.38 µM
COc1ccc(-c2nc(C(=O)N3CCc4c(ccc(N(C)C)c4O)C3)c3ccccc3n2)cc1 [Compound 25, 2-[[2-(4-methoxylphenyl)quinazolin-4-yl]carbonyl]-5-hydroxy-6-dimethylamino-1,2,3,4-tetrahydroisoquinoline] | – | – | – | 1.77 µM | 2.53 µM | – | – | –
COc1ccc2c(c1O)CCN(C(=O)c1nc(-c3ccc(Cl)cc3)nc3ccccc13)C2 [Compound 27, 2-[[2-(4-chlorophenyl)quinazolin-4-yl]carbonyl]-5-hydroxy-6-methoxy-1,2,3,4-tetrahydroisoquinoline] | – | – | – | 0.42 µM | 0.54 µM | 0.5 µM | – | 0.46 µM
Cc1ccc2c(c1O)CCN(C(=O)c1nc(-c3ccc(Cl)cc3)nc3ccccc13)C2 [Compound 31, 2-[[2-(4-chlorophenyl)quinazolin-4-yl]carbonyl]-5-hydroxy-6-methyl-1,2,3,4-tetrahydroisoquinoline] | – | – | – | 0.85 µM | 0.63 µM | 0.91 µM | – | 0.64 µM
COc1ccc2c(c1O)CCN(C(=O)c1nc(-c3ccc(N(C)C)cc3)nc3ccccc13)C2 [Compound 32, 2-[[2-(4-(dimethylamino)phenyl)quinazolin-4-yl]carbonyl]-5-hydroxy-6-methoxy-1,2,3,4-tetrahydroisoquinoline] | – | – | – | 0.47 µM | 0.43 µM | 0.52 µM | – | 0.37 µM
COc1ccc2c(c1O)CCN(C(=O)c1nc(-c3ccc(C(F)(F)F)cc3)nc3ccccc13)C2 [Compound 37, 2-[[2-(4-(trifluoromethyl)phenyl)quinazolin-4-yl]carbonyl]-5-hydroxy-6-methoxy-1,2,3,4-tetrahydroisoquinoline] | – | – | – | 0.43 µM | 0.42 µM | 0.55 µM | – | 0.36 µM
COc1cccc(-c2nc(C(=O)N3CCc4c(ccc(OC)c4O)C3)c3ccccc3n2)c1 [Compound 47, 2-[[2-(3-methoxylphenyl)quinazolin-4-yl]carbonyl]-5-hydroxy-6-methoxy-1,2,3,4-tetrahydroisoquinoline] | – | – | – | 0.5 µM | 0.49 µM | 0.81 µM | – | 0.59 µM
COc1ccc2c(c1O)CCN(C(=O)c1nc(-c3cccc(C(F)(F)F)c3)nc3ccccc13)C2 [Compound 52, 2-[[2-(3-(trifluoromethyl)phenyl)quinazolin-4-yl]carbonyl]-5-hydroxy-6-methoxy-1,2,3,4-tetrahydroisoquinoline] | – | – | – | 2.51 µM | 1.62 µM | 2.67 µM | – | 1.91 µM
COc1ccc2c(c1OC)CCN(C(=O)c1nc(-c3cccc(C(F)(F)F)c3)nc3ccccc13)C2 [Compound 54, 2-[[2-(3-(trifluoromethyl)phenyl)quinazolin-4-yl]carbonyl]-5,6-dimethoxy-1,2,3,4-tetrahydroisoquinoline] | – | – | – | – | 3.44 µM | 1.65 µM | – | –
Cc1ccc2c(c1O)CCN(C(=O)c1nc(-c3ccc(F)cc3F)nc3ccccc13)C2 [Compound 61, 2-[[2-(2,4-difluorophenyl)quinazolin-4-yl]carbonyl]-5-hydroxy-6-methyl-1,2,3,4-tetrahydroisoquinoline] | – | – | – | 2.31 µM | 1.84 µM | 2.76 µM | – | 2.47 µM
COc1ccc2c(c1O)CCN(C(=O)c1nc(-c3ccc(NC(C)=O)cc3)nc3ccccc13)C2 [Compound 62, 2-[[2-(4-acetamidophenyl)quinazolin-4-yl]carbonyl]-5-hydroxy-6-methoxy-1,2,3,4-tetrahydroisoquinoline] | – | – | – | 0.21 µM | 0.2 µM | 0.34 µM | – | 0.2 µM
COc1ccc2c(c1O)CCN(C(=O)c1nc(-c3ccc([N+](=O)[O-])cc3)nc3ccccc13)C2 [Compound 95, 2-[[2-(4-nitrophenyl)quinazolin-4-yl]carbonyl]-5-hydroxy-6-methoxy-1,2,3,4-tetrahydroisoquinoline] | – | – | – | 0.2 µM | 0.11 µM | 0.16 µM | – | –

Further lines, with some results ahead:

IC50 ([2]; 96 hours incubation) | IC50 ([3]; 96 hours incubation) | IC50 ([4]; 96 hours incubation) | IC50 [2, 6] | IC50 [3, 7] | IC50 [4, 8] | Compound | IC50 ([1]; 96 hours incubation) | IC50 [1, 5]
0.51 µM | 0.58 µM | 0.54 µM | – | – | – | 2-[[2-(3-fluorophenyl)phenyl)quinazolin-4-yl]carbonyl]-5-hydroxy-6-methyl-1,2,3,4-tetrahydroisoquinoline [Compound 46] | 0.52 µM | –
– | – | – | 1.45 µM | 1.2 µM | 1.39 µM | COc1ccc2c(c1OC)CCN(C(=O)c1nc(-c3ccc(F)cc3)nc3ccccc13)C2 [Compound 3, 2-[[2-(4-fluorophenyl)quinazolin-4-yl]carbonyl]-5,6-dimethoxy-1,2,3,4-tetrahydroisoquinoline] | – | 1.1 µM
– | – | – | 0.4 µM | 0.38 µM | 0.47 µM | Cc1ccc2c(c1O)CCN(C(=O)c1nc(-c3ccc(F)cc3)nc3ccccc13)C2 [Compound 5, 2-[[2-(4-fluorophenyl)quinazolin-4-yl]carbonyl]-5-hydroxy-6-methyl-1,2,3,4-tetrahydroisoquinoline] | – | 0.36 µM
– | – | – | 0.18 µM | 0.23 µM | 0.29 µM | COc1ccc2c(c1O)CCN(C(=O)c1nc(-c3ccc(C)cc3)nc3ccccc13)C2 [Compound 12, 2-[[2-(4-methylphenyl)quinazolin-4-yl]carbonyl]-5-hydroxy-6-methoxy-1,2,3,4-tetrahydroisoquinoline] | – | 0.2 µM
– | – | – | 0.18 µM | 0.19 µM | 0.22 µM | COc1ccc(-c2nc(C(=O)N3CCc4c(ccc(C)c4O)C3)c3ccccc3n2)cc1 [Compound 26, 2-[[2-(4-methoxylphenyl)quinazolin-4-yl]carbonyl]-5-hydroxy-6-methyl-1,2,3,4-tetrahydroisoquinoline] | – | 0.16 µM
– | – | – | 0.28 µM | 0.23 µM | 0.36 µM | COc1ccc2c(c1O)CCN(C(=O)c1nc(-c3ccc(N)cc3)nc3ccccc13)C2 [Compound 96, 2-[[2-(4-aminophenyl)quinazolin-4-yl]carbonyl]-5-hydroxy-6-methoxy-1,2,3,4-tetrahydroisoquinoline] | – | –
